Measured values as given in patent US20260042731A1, “(2,4-DICHLOROPHENOXY)ACETIC ACID ANALOGS” (CORTEVA AGRISCIENCE LLC, priority 2022, published 2026).
Where a name gives a salt, the structure may show the parent alone. Read-outs that look alike come from different tables or passages of the source.

Assays:
[1] = tested on: Corn (ZEAMX); experiment: Greenhouse post-emergence mixture trials, percent visual control; type: in vivo
[2] = tested on: Common Lambsquarters (CHEAL); experiment: as above; type: in vivo
[3] = tested on: Velvetleaf (ABUTH); experiment: as above; type: in vivo; conditions: Abutilon theophrasti, post-emergence, 504 h; for pest or weed control at 5 g/ha: Arylex 5 g ai or ae/ha alone
[4] = tested on: Amaranthus rudis (AMATA), tall water hemp; experiment: Postemergence herbicide evaluation, growth of Amaranthus rudis (AMATA); type: in vivo; conditions: Amaranthus tuberculatus, post-emergence; for pest or weed control at 280 g/ha: 280 g ae/ha; for pest or weed control at 560 g/ha: 560 g ae/ha
[5] = tested on: Ambrosia artemisiifolia (AMBEL), common ragweed; experiment: Postemergence herbicide evaluation, growth of Ambrosia artemisiifolia (AMBEL); type: in vivo; conditions: Ambrosia artemisiifolia, post-emergence; for pest or weed control at 280 g/ha: 280 g ae/ha; for pest or weed control at 560 g/ha: 560 g ae/ha
[6] = tested on: Abutilon theophrasti (ABUTH), velvetleaf; experiment: Postemergence herbicide evaluation, growth of Abutilon theophrasti (ABUTH); type: in vivo; conditions: Abutilon theophrasti, post-emergence; for pest or weed control at 280 g/ha: 280 g ae/ha; for pest or weed control at 560 g/ha: 560 g ae/ha
[7] = tested on: Chenopodium album (CHEAL), common lambsquarters; experiment: Postemergence herbicide evaluation, growth of Chenopodium album (CHEAL); type: in vivo; conditions: Chenopodium album, post-emergence; for pest or weed control at 280 g/ha: 280 g ae/ha; for pest or weed control at 560 g/ha: 560 g ae/ha
[8] = tested on: glyphosate resistant Conyza canadensis (L.) (ERICA), horseweed; experiment: Postemergence herbicide evaluation, growth of Conyza canadensis (ERICA); type: in vivo; conditions: Erigeron canadensis, post-emergence; for pest or weed control at 280 g/ha: 280 g ae/ha; for pest or weed control at 560 g/ha: 560 g ae/ha
[9] = Volatility of compounds measured by thermogravimetric analysis (TGA); type: physicochemical
[10] = tested on: weeds ABUTH, AMATA, AMBEL, CHEAL, ERICA; experiment: Postemergence herbicide evaluation, overall average % weed control across ABUTH, AMATA, AMBEL, CHEAL and ERICA; type: in vivo; conditions: post-emergence, average over five weeds, read-out: Overall Ave % Weed Control; for pest or weed control at 560 g/ha: 560 g ae/ha
[11] = tested on: weeds ABUTH, AMATA, AMBEL, CHEAL, ERICA; experiment: Postemergence herbicide evaluation, overall average % weed control (ABUTH, AMATA, AMBEL, CHEAL, ERICA); type: in vivo; conditions: post-emergence, read-out: Overall Ave % Weed Control; for pest or weed control at 280 g/ha: 280 g ae/ha
[12] = 168 h, 7 DAA, read-out: Ave. AMATA, percent reduction in plant size relative to the untreated control
[13] = 504 h, 21 DAA, percent reduction in plant size vs untreated control, read-out: Ave. AMATA
[14] = 168 h, 7 DAA, read-out: AVE. AMBEL, percent reduction in plant size relative to the untreated control
[15] = 504 h, 21 DAA, percent reduction in plant size vs untreated control, read-out: AVE. AMBEL
[16] = 168 h, 7 DAA, read-out: AVE. ABUTH, percent reduction in plant size relative to the untreated control
[17] = 504 h, 21 DAA, percent reduction in plant size vs untreated control, read-out: AVE. ABUTH
[18] = 168 h, 7 DAA, read-out: Ave. CHEAL, percent reduction in plant size relative to the untreated control
[19] = 504 h, 21 DAA, percent reduction in plant size vs untreated control, read-out: Ave. CHEAL
[20] = 168 h, 7 DAA, read-out: Ave. ERICA, percent reduction in plant size relative to the untreated control
[21] = 504 h, 21 DAA, percent reduction in plant size vs untreated control, read-out: Ave. ERICA
[22] = Zea mays, post-emergence, 504 h, read-out: % Control
[23] = Chenopodium album, post-emergence, 504 h, read-out: % Control

Compound: COC(=O)c1nc(-c2ccc(Cl)c(OC)c2F)cc(N)c1Cl [Arylex, halauxifen-methyl, reference compound]
- plant injury at 5 g/ha ([1]; Zea mays, post-emergence, 504 h, Trial 2 Trt 19, ZEAMX, B2 0 g ae/ha, Arylex 5 g ai or ae/ha alone, 21 DAA): 70%
- plant injury at […] ([1]; Zea mays, post-emergence, 504 h, Trial 2 Trt 22, ZEAMX, B2 0 g ae/ha, Arylex 6.5 g ai or ae/ha alone, 21 DAA): 75%
- plant injury at 5 g/ha ([1]; Zea mays, post-emergence, 504 h, Trial Bridge 1, ZEAMX, Arylex 5 g ai or ae/ha alone (compound rate 0), 21 DAA, single replicate): 65%
- pest or weed control at 5 g/ha ([2]; Chenopodium album, post-emergence, 504 h, Trial 2 Trt 19: B2 0 g ae/ha, Arylex 5 g ai or ae/ha alone, CHEAL, 21 DAA): 100%
- pest or weed control at […] ([2]; Chenopodium album, post-emergence, 504 h, Trial 2 Trt 22: B2 0 g ae/ha, Arylex 6.5 g ai or ae/ha alone, CHEAL, 21 DAA): 100%
- % Control ([2]; Trial Bridge 1, CHEAL, mixing partner alone (D10 at 0 g ae/ha), Arylex 5 g ai or ae/ha, 21 DAA): 100%
- pest or weed control at 5 g/ha ([3]; Trial 2 Trt 19, B2 0 g ae/ha, ABUTH, 21 DAA): 100%
- pest or weed control at 65 g/ha ([3]; Trial 2 Trt 22, B2 0 g ae/ha, Arylex 65 g ai or ae/ha alone, ABUTH, 21 DAA): 100%
- pest or weed control at 5 g/ha ([3]; Trial Bridge 1 Trt 7, ABUTH, D10 0 g ae/ha, 21 DAA): 100%

Compound: COc1ncc(OC(=O)COc2ccc(Cl)cc2Cl)cn1 [Compound E12]
- pest or weed control at 280 g/ha [4, 12]: 70%
- pest or weed control at 560 g/ha [4, 12]: 75%
- pest or weed control at 280 g/ha ([4]; 336 h, 14 DAA, read-out: Ave. AMATA, percent reduction in plant size relative to the untreated control): 80%
- pest or weed control at 560 g/ha ([4]; 336 h, 14 DAA, percent reduction in plant size vs untreated control, read-out: Ave. AMATA): 87.5%
- pest or weed control at 280 g/ha [4, 13]: 70%
- pest or weed control at 560 g/ha [4, 13]: 87.5%
- pest or weed control at 280 g/ha [5, 14]: 75%
- pest or weed control at 560 g/ha [5, 14]: 77.5%
- pest or weed control at 280 g/ha ([5]; 336 h, 14 DAA, read-out: AVE. AMBEL, percent reduction in plant size relative to the untreated control): 70%
- pest or weed control at 560 g/ha ([5]; 336 h, 14 DAA, percent reduction in plant size vs untreated control, read-out: AVE. AMBEL): 90%
- pest or weed control at 280 g/ha [5, 15]: 100%
- pest or weed control at 560 g/ha [5, 15]: 100%
- pest or weed control at 280 g/ha [6, 16]: 50%
- pest or weed control at 560 g/ha [6, 16]: 50%
- pest or weed control at 280 g/ha ([6]; 336 h, 14 DAA, read-out: AVE. ABUTH, percent reduction in plant size relative to the untreated control): 60%
- pest or weed control at 560 g/ha ([6]; 336 h, 14 DAA, percent reduction in plant size vs untreated control, read-out: AVE. ABUTH): 52.5%
- pest or weed control at 280 g/ha [6, 17]: 65%
- pest or weed control at 560 g/ha [6, 17]: 62.5%
- pest or weed control at 280 g/ha [7, 18]: 77.5%
- pest or weed control at 560 g/ha [7, 18]: 80%
- pest or weed control at 280 g/ha ([7]; 336 h, 14 DAA, read-out: Ave. CHEAL, percent reduction in plant size relative to the untreated control): 90%
- pest or weed control at 560 g/ha ([7]; 336 h, 14 DAA, percent reduction in plant size vs untreated control, read-out: Ave. CHEAL): 95%
- pest or weed control at 280 g/ha [7, 19]: 87.5%
- pest or weed control at 560 g/ha [7, 19]: 87.5%
- pest or weed control at 280 g/ha [8, 20]: 75%
- pest or weed control at 560 g/ha [8, 20]: 85%
- pest or weed control at 280 g/ha ([8]; 336 h, 14 DAA, read-out: Ave. ERICA, percent reduction in plant size relative to the untreated control): 97.5%
- pest or weed control at 560 g/ha ([8]; 336 h, 14 DAA, percent reduction in plant size vs untreated control, read-out: Ave. ERICA): 100%
- pest or weed control at 280 g/ha [8, 21]: 96.5%
- pest or weed control at 560 g/ha [8, 21]: 100%
- TGA Data (rate of weight loss, volatility) [9]: 0.04464 µg/min
- pest or weed control at 560 g/ha ([10]; 336 h, 14 DAA): 85%
- pest or weed control at 280 g/ha ([10]; 504 h, 280 g ae/ha, 21 DAA): 83.8%
- pest or weed control at 560 g/ha ([10]; 504 h, 21 DAA): 87.5%
- pest or weed control at 280 g/ha ([11]; 168 h, 7 DAA): 69.5%
- pest or weed control at 560 g/ha ([11]; 168 h, 560 g ae/ha, 7 DAA): 73.5%
- pest or weed control at 280 g/ha ([11]; 336 h, 14 DAA): 79.5%

Compound: CCOc1nc(F)cc2nc(S(=O)(=O)Nc3c(Cl)cccc3Cl)nn12 [Diclosulam]
- % Control ([1]; Trial Bridge 1, ZEAMX, diclosulam 35 g ai or ae/ha alone (compound rate 0), 21 DAA, single replicate): 70%
- plant injury at 25 g/ha ([1]; Zea mays, post-emergence, 504 h, Trial 2 Trt 13, ZEAMX, B2 0 g ae/ha, Diclosulam 25 g ai or ae/ha alone, 21 DAA): 80%
- plant injury at 35 g/ha ([1]; Zea mays, post-emergence, 504 h, Trial 2 Trt 16, ZEAMX, B2 0 g ae/ha, Diclosulam 35 g ai or ae/ha alone, 21 DAA): 95%
- plant injury at 35 g/ha ([1]; Zea mays, post-emergence, 504 h, Trial Bridge 1, ZEAMX, diclosulam 35 g ai or ae/ha alone (compound rate 0), 21 DAA, single replicate): 70%
- pest or weed control at 25 g/ha ([2]; Chenopodium album, post-emergence, 504 h, Trial 2 Trt 13: B2 0 g ae/ha, Diclosulam 25 g ai or ae/ha alone, CHEAL, 21 DAA): 40%
- pest or weed control at 25 g/ha ([3]; Trial 2 Trt 13, B2 0 g ae/ha, Diclosulam 25 g ai or ae/ha alone, ABUTH, 21 DAA): 100%
- pest or weed control at 35 g/ha ([3]; Trial 2 Trt 16, B2 0 g ae/ha, Diclosulam 35 g ai or ae/ha alone, ABUTH, 21 DAA): 98%
- pest or weed control at 35 g/ha ([3]; Trial Bridge 1 Trt 4, ABUTH, D10 0 g ae/ha, diclosulam 35 g ai or ae/ha alone, 21 DAA): 100%

Compound: CP(=O)(O)CCC(N)C(=O)O (stereo not shown) [Glufosinate, 2-amino-4-(hydroxy(methyl)phosphinyl)butanoic acid ammonium salt]
- plant injury at 200 g/ha [1, 22]: 5%
- plant injury at 900 g/ha [1, 22]: 10%
- pest or weed control at 200 g/ha ([3]; read-out: % Control): 5%

Compound: O=C(O)CNCP(=O)(O)O [Glyphosate, N-(phosphonomethyl) glycine, reference compound]
- plant injury at 375 g/ha [1, 22]: 70%
- pest or weed control at 375 g/ha [2, 23]: 50%
- pest or weed control at 1120 g/ha [2, 23]: 65%
- pest or weed control at 1680 g/ha [2, 23]: 85%
- pest or weed control at 375 g/ha ([3]; read-out: % Control): 85%
- pest or weed control at 1120 g/ha ([3]; read-out: % Control): 100%
- pest or weed control at 1680 g/ha ([3]; read-out: % Control): 100%
